In patent US20230027026A1, “FUSED PYRIMIDINE COMPOUNDS, COMPOSITIONS AND MEDICINAL APPLICATIONS THEREOF” (JUBILANT BIOSYS LIMITED, priority 2019, published 2023):
pIC50: −log10 of the molar value. Structures can show the parent of a compound that is named as a salt.

What was measured:
Assay type in all cases: cell-based
[1] = target: HER2 (A775_G776insYVMA) expressing Ba/F3 stable cell line (Homo sapiens, UniProt P04626, DUP772-775, cells depend on it); experiment: Cellular proliferation (Alamar Blue) assay, HER2 YVMA Ba/F3; conditions: HER2 A775_G776insYVMA Ba/F3, 72 hr, read-out: YVMA IC50
Chain of HER2 (A775_G776insYVMA) expressing Ba/F3 stable cell line (P04626 with tags, fused parts or gaps DUP772-775): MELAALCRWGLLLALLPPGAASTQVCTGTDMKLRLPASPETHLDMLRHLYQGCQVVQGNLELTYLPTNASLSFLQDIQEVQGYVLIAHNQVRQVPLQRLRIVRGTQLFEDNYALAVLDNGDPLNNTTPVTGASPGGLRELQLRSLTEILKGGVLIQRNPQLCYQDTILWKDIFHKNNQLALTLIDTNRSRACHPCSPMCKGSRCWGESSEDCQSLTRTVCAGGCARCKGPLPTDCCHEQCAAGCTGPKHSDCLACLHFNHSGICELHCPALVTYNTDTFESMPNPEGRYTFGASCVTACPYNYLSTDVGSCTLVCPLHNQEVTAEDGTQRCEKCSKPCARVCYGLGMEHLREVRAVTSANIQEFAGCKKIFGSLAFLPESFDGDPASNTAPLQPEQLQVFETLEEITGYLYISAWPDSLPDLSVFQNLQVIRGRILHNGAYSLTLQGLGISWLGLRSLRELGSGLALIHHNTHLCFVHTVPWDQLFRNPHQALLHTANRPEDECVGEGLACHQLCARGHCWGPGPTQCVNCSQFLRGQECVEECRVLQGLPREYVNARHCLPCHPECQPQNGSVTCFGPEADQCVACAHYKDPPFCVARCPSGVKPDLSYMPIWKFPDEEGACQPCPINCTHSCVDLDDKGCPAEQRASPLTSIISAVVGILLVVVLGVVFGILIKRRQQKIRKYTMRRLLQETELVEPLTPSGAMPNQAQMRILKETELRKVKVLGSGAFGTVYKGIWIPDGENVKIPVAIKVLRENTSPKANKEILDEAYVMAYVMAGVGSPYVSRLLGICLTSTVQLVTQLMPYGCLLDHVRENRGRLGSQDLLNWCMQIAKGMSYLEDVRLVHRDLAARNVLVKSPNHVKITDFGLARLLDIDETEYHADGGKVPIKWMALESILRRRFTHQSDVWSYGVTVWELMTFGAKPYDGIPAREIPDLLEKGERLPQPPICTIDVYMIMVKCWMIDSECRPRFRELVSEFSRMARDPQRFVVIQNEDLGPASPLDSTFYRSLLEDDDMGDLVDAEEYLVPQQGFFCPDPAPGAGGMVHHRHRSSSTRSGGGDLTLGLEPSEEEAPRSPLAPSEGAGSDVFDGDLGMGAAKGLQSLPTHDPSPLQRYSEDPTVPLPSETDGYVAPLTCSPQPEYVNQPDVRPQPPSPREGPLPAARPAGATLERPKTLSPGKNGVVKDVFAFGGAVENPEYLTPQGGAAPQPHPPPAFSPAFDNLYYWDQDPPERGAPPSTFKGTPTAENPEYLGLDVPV
Description: Example 3: Cellular Proliferation (Alamar Blue) Assays
• 1. EGFR(D770_N771insSVD) expressing Ba/F3 stable cell line • 2. EGFR (A767_dupASV) expressing Ba/F3 stable cell line • 3. A431 cells • 4. BTER2 (A775_G776insYVMA) expressing Ba/F3 stable cell line • 5. BTER2 (WT) expressing Ba/F3 stable cell line • 6. BT-474 cells
• 1. Seed cells at 5000 for A431 and 15,000 cells for Ba/F3 in 100 μL/well in complete media (for A431: DMEM with 10% FBS and for Ba/F3 cells: RPMI with 10% FBS) in 96-well tissue culture plate. Leave outer wells without cells for background measurements. Incubate at 37 degree Celsius in 5% CO2 humidified incubator for 16-18 hours. • 2. Add 0.025 ml of 5× concentration compound dilution or DMSO control. Final compound concentration range is 10-0.0005 μM prepared in 3-fold serial dilutions. Incubate for 72 hr at 37 degree Celsius in […] humidified incubator. • 3. Add 0.0125 mL Alamar Blue™ reagent to each well with multi-channel pipette and tap gently on each side of the plate to mix. Incubate for 3 hours at 37 degree Celsius in […] humidified incubator. • 4. Read plates on fluorescence reader (Tecan Spark Control, Device: Spark, Serial #: 1801006040) at 540 nm excitation, 590 nm emission wavelength. • 5. Data analysis was performed using XLfit 5.5.0.5.

[2] = target: EGFR (A767_dupASV) expressing Ba/F3 stable cell line (Homo sapiens, UniProt P00533, DUP767-769, cells depend on it); experiment: Cellular proliferation (Alamar Blue) assay, EGFR A767_dupASV Ba/F3; conditions: EGFR A767_dupASV Ba/F3, 72 hr, read-out: A767 IC50
Chain of EGFR (A767_dupASV) expressing Ba/F3 stable cell line (P00533 with tags, fused parts or gaps DUP767-769): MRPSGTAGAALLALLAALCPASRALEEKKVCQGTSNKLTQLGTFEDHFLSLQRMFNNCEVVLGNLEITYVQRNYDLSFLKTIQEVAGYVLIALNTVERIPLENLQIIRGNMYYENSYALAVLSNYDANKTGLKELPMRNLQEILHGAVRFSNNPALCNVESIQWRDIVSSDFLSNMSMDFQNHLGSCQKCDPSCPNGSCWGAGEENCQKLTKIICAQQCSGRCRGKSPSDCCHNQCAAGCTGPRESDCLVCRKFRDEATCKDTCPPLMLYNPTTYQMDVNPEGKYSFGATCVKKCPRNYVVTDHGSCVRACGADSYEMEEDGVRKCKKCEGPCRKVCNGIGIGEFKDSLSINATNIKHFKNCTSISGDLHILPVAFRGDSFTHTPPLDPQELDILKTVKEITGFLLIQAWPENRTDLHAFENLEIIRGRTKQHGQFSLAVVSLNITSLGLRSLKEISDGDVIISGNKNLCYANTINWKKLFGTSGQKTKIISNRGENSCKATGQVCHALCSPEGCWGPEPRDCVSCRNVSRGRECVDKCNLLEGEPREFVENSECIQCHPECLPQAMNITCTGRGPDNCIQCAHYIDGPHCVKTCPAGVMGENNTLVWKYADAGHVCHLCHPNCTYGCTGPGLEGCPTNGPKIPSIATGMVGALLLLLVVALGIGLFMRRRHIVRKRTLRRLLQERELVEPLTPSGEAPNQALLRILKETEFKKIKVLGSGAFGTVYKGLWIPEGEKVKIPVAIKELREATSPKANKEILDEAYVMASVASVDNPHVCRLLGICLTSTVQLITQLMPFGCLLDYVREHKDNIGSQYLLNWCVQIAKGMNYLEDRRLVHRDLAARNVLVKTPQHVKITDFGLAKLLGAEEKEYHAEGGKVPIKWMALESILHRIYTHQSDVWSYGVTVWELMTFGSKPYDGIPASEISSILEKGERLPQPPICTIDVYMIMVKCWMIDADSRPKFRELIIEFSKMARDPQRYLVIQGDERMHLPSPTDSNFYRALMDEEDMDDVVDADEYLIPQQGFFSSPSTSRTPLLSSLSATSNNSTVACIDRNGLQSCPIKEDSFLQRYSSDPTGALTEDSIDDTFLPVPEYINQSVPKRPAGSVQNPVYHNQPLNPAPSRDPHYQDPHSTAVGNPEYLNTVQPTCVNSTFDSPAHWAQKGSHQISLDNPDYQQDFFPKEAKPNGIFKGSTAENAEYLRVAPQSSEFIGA
Outline: (§1)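 Fluorescence read-out (ex 540/em 590 nm) after 3 h Alamar Blue incubation, following 72 h compound exposure at 37 °C, 5% CO2. Final compound range 10–0.0005 μM, 3-fold steps; Ba/F3 cells plated 15,000/well in RPMI + 10% FBS overnight beforehand.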

[3] = target: EGFR(D770_N771insSVD) expressing Ba/F3 stable cell line (Homo sapiens, UniProt P00533, DUP768-770, cells depend on it); experiment: Cellular proliferation (Alamar Blue) assay, EGFR D770_N771insSVD Ba/F3; conditions: EGFR D770_N771insSVD Ba/F3, 72 hr, read-out: D770 IC50
Chain of EGFR(D770_N771insSVD) expressing Ba/F3 stable cell line (P00533 with tags, fused parts or gaps DUP768-770): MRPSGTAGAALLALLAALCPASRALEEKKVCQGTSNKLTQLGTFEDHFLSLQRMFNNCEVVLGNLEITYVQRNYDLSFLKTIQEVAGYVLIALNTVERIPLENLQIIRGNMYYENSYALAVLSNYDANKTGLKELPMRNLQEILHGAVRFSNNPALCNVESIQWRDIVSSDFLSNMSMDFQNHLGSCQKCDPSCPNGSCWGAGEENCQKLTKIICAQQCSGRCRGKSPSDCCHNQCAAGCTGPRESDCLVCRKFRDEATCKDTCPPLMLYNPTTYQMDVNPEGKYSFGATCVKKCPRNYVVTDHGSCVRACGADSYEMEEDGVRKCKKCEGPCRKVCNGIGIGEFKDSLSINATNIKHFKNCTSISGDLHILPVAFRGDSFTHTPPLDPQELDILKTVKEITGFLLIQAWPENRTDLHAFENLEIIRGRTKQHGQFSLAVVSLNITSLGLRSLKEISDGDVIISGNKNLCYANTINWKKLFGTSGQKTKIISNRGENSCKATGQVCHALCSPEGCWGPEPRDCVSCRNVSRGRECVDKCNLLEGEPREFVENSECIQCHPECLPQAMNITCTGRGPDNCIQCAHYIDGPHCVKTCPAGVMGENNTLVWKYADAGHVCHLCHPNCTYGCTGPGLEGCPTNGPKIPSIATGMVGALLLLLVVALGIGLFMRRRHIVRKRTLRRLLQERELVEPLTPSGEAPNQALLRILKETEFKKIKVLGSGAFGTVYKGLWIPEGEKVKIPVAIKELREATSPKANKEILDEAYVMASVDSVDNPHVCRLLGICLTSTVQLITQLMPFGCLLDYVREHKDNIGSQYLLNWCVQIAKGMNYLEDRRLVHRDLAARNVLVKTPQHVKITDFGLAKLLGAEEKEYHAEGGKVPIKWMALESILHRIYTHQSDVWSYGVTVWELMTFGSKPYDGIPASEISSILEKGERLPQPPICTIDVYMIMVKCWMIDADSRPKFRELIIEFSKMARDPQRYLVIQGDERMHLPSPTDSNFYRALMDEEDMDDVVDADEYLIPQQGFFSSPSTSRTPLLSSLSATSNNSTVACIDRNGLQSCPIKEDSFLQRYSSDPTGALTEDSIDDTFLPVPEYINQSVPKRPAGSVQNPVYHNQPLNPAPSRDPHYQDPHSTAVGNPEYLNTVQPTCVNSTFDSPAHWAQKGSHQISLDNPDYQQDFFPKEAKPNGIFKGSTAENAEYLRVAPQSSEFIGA
Outline: as §1

[4] = test system: A431 cells; experiment: Cellular proliferation (Alamar Blue) assay, A431; conditions: Homo sapiens, A-431; A431 cells, 72 hr, Alamar Blue; read-out: A431 IC50
Outline: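 Seventy-two-hour growth assay with 3-fold compound titration (final 10–0.0005 μM) and Alamar Blue fluorescence end point, ex 540/em 590 nm.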

SMILES	GI50 [1] [nM]	GI50 [2] [nM]	GI50 [3] [nM]	pIC50 [4]
C=CC(=O)Nc1cccc(N2C(=O)N(c3ccccc3)Cc3cnc(Nc4ccc(N5CCN(C)CC5)nc4)nc32)c1 [Compound 110, N-(3-(7-((6-(4-methylpiperazin-1-yl)pyridin-3-yl)amino)-2-oxo-3-phenyl-3,4-dihydropyrimido[4,5-d]pyrimidin-1(2H)-yl)phenyl)acrylamide]	103	43	102	5.44
C=CC(=O)Nc1cccc(N2C(=O)N(c3ccccc3)Cc3cnc(Nc4cccnc4F)nc32)c1 [Compound 115, N-(3-(7-((2-fluoropyridin-3-yl)amino)-2-oxo-3-phenyl-3,4-dihydropyrimido[4,5-d]pyrimidin-1(2H)-yl)phenyl)acrylamide]	188	8	28	≤ 5.00
C=CC(=O)Nc1cccc(N2C(=O)N(c3ccccc3)Cc3cnc(Nc4cn(C5CCC(O)CC5)nc4Cl)nc32)c1 (centres unmarked) [Compound 129, N-(3-(7-((3-chloro-1-(4-hydroxycyclohexyl)-1H-pyrazol-4-yl)amino)-2-oxo-3-phenyl-3,4-dihydropyrimido[4,5-d]pyrimidin-1(2H)-yl)phenyl)acrylamide trifluoroacetate salt]	312	157	333	≤ 5.00
CN(C)C/C=C/C(=O)Nc1ccc(F)c(N2C(=O)N(Cc3ccccc3)Cc3cnc(Nc4cn(C)nc4Cl)nc32)c1 [Compound 85, (E)-N-(3-(3-benzyl-7-((3-chloro-1-methyl-1H-pyrazol-4-yl)amino)-2-oxo-3,4-dihydropyrimido[4,5-d]pyrimidin-1(2H)-yl)-4-fluorophenyl)-4-(dimethylamino)but-2-enamide]	38	94	123	5.89
CN(C)C/C=C/C(=O)Nc1cccc(N2C(=O)N(c3ccccc3)Cc3cnc(Nc4cccnc4F)nc32)c1 [Compound 114, (E)-4-(dimethylamino)-N-(3-(7-((2-fluoropyridin-3-yl)amino)-2-oxo-3-phenyl-3,4-dihydropyrimido[4,5-d]pyrimidin-1(2H)-yl)phenyl)but-2-enamide]	1150	164	1090	≤ 5.00
Cn1cc(Nc2ncc3c(n2)N(c2cccc(NC(=O)/C=C/CF)c2)C(=O)N(Cc2ccccc2)C3)c(Cl)n1 [Compound 74, (E)-N-(3-(3-benzyl-7-((3-chloro-1-methyl-1H-pyrazol-4-yl)amino)-2-oxo-3,4-dihydropyrimido[4,5-d]pyrimidin-1(2H)-yl)phenyl)-4-fluorobut-2-enamide]	80	11	25	≤ 5.00
C=CC(=O)Nc1cccc(N2C(=O)N(c3ccccc3)Cc3cnc(Nc4cnn(C5CCC(O)CC5)c4)nc32)c1 (centres unmarked) [Compound 108, N-(3-(7-((1-(4-hydroxycyclohexyl)-1H-pyrazol-4-yl)amino)-2-oxo-3-phenyl-3,4-dihydropyrimido[4,5-d]pyrimidin-1(2H)-yl)phenyl)acrylamide]	2020	912	634	≤ 5.00
CN(C)C/C=C/C(=O)Nc1cccc(N2C(=O)N(Cc3ccccc3)Cc3cnc(Nc4ccc(N5CCN(C)CC5)nc4)nc32)c1 [Compound 66, (E)-N-(3-(3-benzyl-7-((6-(4-methylpiperazin-1-yl)pyridin-3-yl)amino)-2-oxo-3,4-dihydropyrimido[4,5-d]pyrimidin-1(2H)-yl)phenyl)-4-(dimethylamino)but-2-enamide]	1760	3280	3190	≤ 5.00
Cn1cc(Nc2ncc3c(n2)N(c2cccc(NC(=O)/C=C/CN4CCCCC4)c2)C(=O)N(c2ccccc2)C3)c(Cl)n1 [Compound 111, (E)-N-(3-(7-((3-chloro-1-methyl-1H-pyrazol-4-yl)amino)-2-oxo-3-phenyl-3,4-dihydropyrimido[4,5-d]pyrimidin-1(2H)-yl)phenyl)-4-(piperidin-1-yl)but-2-enamide]	64	39	128	≤ 5.00
C=CC(=O)Nc1cccc(N2C(=O)N(c3ccccc3)Cc3cnc(Nc4cn(C5COC5)nc4Cl)nc32)c1 [Compound 136, N-(3-(7-((3-chloro-1-(oxetan-3-yl)-1H-pyrazol-4-yl)amino)-2-oxo-3-phenyl-3,4-dihydropyrimido[4,5-d]pyrimidin-1(2H)-yl)phenyl)acrylamide]	63	15	29	< 5.00
C=CC(=O)Nc1cccc(N2C(=O)N(c3ccccc3)Cc3cnc(Nc4ccc(N5CCC(N(C)C)CC5)nc4)nc32)c1 [Compound 112, N-(3-(7-((6-(4-(dimethylamino)piperidin-1-yl)pyridin-3-yl)amino)-2-oxo-3-phenyl-3,4-dihydropyrimido[4,5-d]pyrimidin-1(2H)-yl)phenyl)acrylamide]	354	229	295	≤ 5.00
Cn1cc(Nc2ncc3c(n2)N(c2cccc(NC(=O)/C=C/CN4CCCCC4)c2)C(=O)N(Cc2ccccc2)C3)c(Cl)n1 [Compound 70, (E)-N-(3-(3-benzyl-7-((3-chloro-1-methyl-1H-pyrazol-4-yl)amino)-2-oxo-3,4-dihydropyrimido[4,5-d]pyrimidin-1(2H)-yl)phenyl)-4-(piperidin-1-yl)but-2-enamide]	38	42	72	≤ 5.00
CN(C)C/C=C/C(=O)Nc1cccc(N2C(=O)N(Cc3ccccc3)Cc3cnc(Nc4cn(C5CCN(C)CC5)nc4Cl)nc32)c1 [Compound 65, (E)-N-(3-(3-benzyl-7-((3-chloro-1-(1-methylpiperidin-4-yl)-1H-pyrazol-4-yl)amino)-2-oxo-3,4-dihydropyrimido[4,5-d]pyrimidin-1(2H)-yl)phenyl)-4-(dimethylamino)but-2-enamide trifluoroacetate salt]	732	964	1090	≤ 5.00
COC/C=C/C(=O)Nc1cccc(N2C(=O)N(c3ccccc3)Cc3cnc(Nc4cn(C)nc4Cl)nc32)c1 [Compound 119, (E)-N-(3-(7-((3-chloro-1-methyl-1H-pyrazol-4-yl)amino)-2-oxo-3-phenyl-3,4-dihydropyrimido[4,5-d]pyrimidin-1(2H)-yl)phenyl)-4-methoxybut-2-enamide]	144	98	140	≤ 5.00
CN(C)C/C=C/C(=O)Nc1cccc(N2C(=O)N(c3ccccc3)Cc3cnc(Nc4cn(C5CCN(C)CC5)nc4Cl)nc32)c1 [Compound 106, (E)-N-(3-(7-((3-chloro-1-(1-methylpiperidin-4-yl)-1H-pyrazol-4-yl)amino)-2-oxo-3-phenyl-3,4-dihydropyrimido[4,5-d]pyrimidin-1(2H)-yl)phenyl)-4-(dimethylamino)but-2-enamide]	995	926	1110	5.05
C/C=C/C(=O)Nc1cccc(N2C(=O)N(c3ccccc3)Cc3cnc(Nc4cn(C)nc4Cl)nc32)c1 [Compound 120, (E)-N-(3-(7-((3-chloro-1-methyl-1H-pyrazol-4-yl)amino)-2-oxo-3-phenyl-3,4-dihydropyrimido[4,5-d]pyrimidin-1(2H)-yl)phenyl)but-2-enamide]	158	107	183	≤ 5.00
CN(C)C/C=C/C(=O)Nc1cccc(N2C(=O)N(Cc3ccccc3)Cc3cnc(Nc4cccc5c4CCN5C)nc32)c1 [Compound 80, (E)-N-(3-(3-benzyl-7-((1-methylindolin-4-yl)amino)-2-oxo-3,4-dihydropyrimido[4,5-d]pyrimidin-1(2H)-yl)phenyl)-4-(dimethylamino)but-2-enamide]	296	343	806	≤ 5.00
